Values joined by “and” are separate entries in the source; they are usually repeats but may differ in a detail not shown here. Equal values may be shown once. Inconclusive results and toxic doses are left out. The calls were made as follows: active = survival T/C of 150% or more; inactive = T/C below 125% in these data.
Tested on: P388 leukemia ip, CD2F1 mice, survival T/C
Assay: NCI In Vivo Anticancer Drug Screen. Data for tumor model P388 Leukemia (intraperitoneal) in CD2F1 (CDF1) mice
Details: endpoint: median survival time, higher = longer survival
Summary of the method: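 Mice carrying the transplanted tumor received test compound or vehicle. Survival was recorded in each group, and the value is the treated-group measurement divided by that of the vehicle-treated control group.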

[1] = dose: 50.0 mg/kg/injection, schedule: Q01DX005 (ip), vehicle: saline with Tween-80
[2] = dose: 100.0 mg/kg/injection, schedule: Q01DX005 (ip), vehicle: saline with Tween-80
[3] = dose: 60.0 mg/kg/injection, schedule: Q01DX005 (ip), vehicle: saline with Tween-80
[4] = dose: 120.0 mg/kg/injection, schedule: Q01DX005 (ip), vehicle: saline with Tween-80
[5] = dose: 25.0 mg/kg/injection, schedule: Q01DX009 (ip), vehicle: saline with Tween-80
[6] = dose: 50.0 mg/kg/injection, schedule: Q01DX009 (ip), vehicle: saline with Tween-80
[7] = dose: 100.0 mg/kg/injection, schedule: Q01DX009 (ip), vehicle: saline with Tween-80
[8] = dose: 100.0 mg/kg/injection, schedule: Q04DX003 (ip), vehicle: saline with Tween-80
[9] = dose: 200.0 mg/kg/injection, schedule: Q04DX003 (ip), vehicle: saline with Tween-80
[10] = dose: 400.0 mg/kg/injection, schedule: Q04DX003 (ip), vehicle: saline with Tween-80

Measured: T/C

Cn1c2ccc(Cl)cc2c2oc(-c3nn[nH]n3)cc(=O)c21
inactive: [1] 102 % of control | [2] 107 % of control | dose: 200.0 mg/kg/injection, schedule: Q01DX005 (ip), vehicle: saline with Tween-80 97 % of control

COc1ccc(NC(=O)Oc2ccc(C#N)cc2)cc1
inactive: dose: 7.5 mg/kg/injection, schedule: Q01DX005 (ip), vehicle: Klucel (hydroxypropylcellulose) (HPC) 108 % of control and 98 % of control | dose: 15.0 mg/kg/injection, schedule: Q01DX005 (ip), vehicle: Klucel (hydroxypropylcellulose) (HPC) 112 % of control and 98 % of control | dose: 30.0 mg/kg/injection, schedule: Q01DX005 (ip), vehicle: Klucel (hydroxypropylcellulose) (HPC) 105 % of control and 108 % of control | dose: 60.0 mg/kg/injection, schedule: Q01DX005 (ip), vehicle: Klucel (hydroxypropylcellulose) (HPC) 116 % of control and 123 % of control | dose: 120.0 mg/kg/injection, schedule: Q01DX005 (ip), vehicle: Klucel (hydroxypropylcellulose) (HPC) 117 % of control

Nc1ccc2c(SCCCCCCCCSc3c4ccccc4nc4cc(N)ccc34)c3ccccc3nc2c1
inactive: [3] 106 % of control | [4] 106 % of control

Cc1cc(N)ccc1Cl
inactive: [5] 97 % of control | [6] 110 % of control | [7] 93 % of control | dose: 200.0 mg/kg/injection, schedule: Q01DX009 (ip), vehicle: saline with Tween-80 96 % of control

NC(=O)c1[nH]nc(C2OC(CO)C(O)C2O)c1O (stereo unspecified)
inactive: dose: 0.31 mg/kg/injection, schedule: Q01DX009 (ip), vehicle: saline 109 % of control | dose: 0.62 mg/kg/injection, schedule: Q01DX009 (ip), vehicle: saline 122 % of control | dose: 0.67 mg/kg/injection, schedule: Q01DX009 (ip), vehicle: saline 124 % of control | dose: 1.0 mg/kg/injection, schedule: Q04DX003 (ip), vehicle: saline 108 % of control | dose: 2.0 mg/kg/injection, schedule: Q04DX003 (ip), vehicle: saline 113 % of control | dose: 3.0 mg/kg/injection, schedule: Q01DX009 (ip), vehicle: saline 107 % of control | dose: 3.0 mg/kg/injection, schedule: Q04DX003 (ip), vehicle: saline 113 % of control | dose: 4.0 mg/kg/injection, schedule: Q04DX003 (ip), vehicle: saline 120 % of control | dose: 4.4 mg/kg/injection, schedule: Q04DX003 (ip), vehicle: saline 115 % of control | dose: 6.7 mg/kg/injection, schedule: Q04DX003 (ip), vehicle: saline 115 % of control | dose: 8.0 mg/kg/injection, schedule: Q04DX003 (ip), vehicle: saline 111 % of control | dose: 9.0 mg/kg/injection, schedule: Q04DX003 (ip), vehicle: saline 123 % of control | dose: 10.0 mg/kg/injection, schedule: Q04DX003 (ip), vehicle: saline sonified 116 % of control | dose: 10.0 mg/kg/injection, schedule: Q04DX003 (ip), vehicle: saline 106 % of control | dose: 16.0 mg/kg/injection, schedule: Q04DX003 (ip), vehicle: saline 111 % of control | dose: 27.0 mg/kg/injection, schedule: Q04DX003 (ip), vehicle: saline 117 % of control | dose: 32.0 mg/kg/injection, schedule: Q04DX003 (ip), vehicle: saline 104 % of control

CN(C)Cc1ccc(C(C)(C)C)cc1Br
inactive: dose: 12.5 mg/kg/injection, schedule: Q01DX009 (ip), vehicle: water 97 % of control | dose: 25.0 mg/kg/injection, schedule: Q01DX009 (ip), vehicle: water 95 % of control | dose: 50.0 mg/kg/injection, schedule: Q01DX009 (ip), vehicle: water 99 % of control | dose: 100.0 mg/kg/injection, schedule: Q01DX009 (ip), vehicle: water 95 % of control | dose: 200.0 mg/kg/injection, schedule: Q01DX009 (ip), vehicle: water 89 % of control

O=C(Cc1cccs1)c1ccc(O)cc1
inactive: dose: 50.0 mg/kg/injection, schedule: Q01DX005 (ip), vehicle: Klucel (hydroxypropylcellulose) (HPC) 99 % of control | dose: 100.0 mg/kg/injection, schedule: Q01DX005 (ip), vehicle: Klucel (hydroxypropylcellulose) (HPC) 102 % of control | dose: 200.0 mg/kg/injection, schedule: Q01DX005 (ip), vehicle: Klucel (hydroxypropylcellulose) (HPC) 105 % of control

COC(=O)C=P(c1ccccc1)(c1ccccc1)c1ccccc1
inactive: [5] 104 % of control | [6] 100 % of control | [7] 91 % of control

COc1cc(OC)c(NC(=S)NC(C)C)cc1Cl
inactive: dose: 50.0 mg/kg/injection, schedule: Q01DX009 (ip), vehicle: Klucel (hydroxypropylcellulose) (HPC) 91 % of control | dose: 100.0 mg/kg/injection, schedule: Q01DX009 (ip), vehicle: Klucel (hydroxypropylcellulose) (HPC) 96 % of control | dose: 200.0 mg/kg/injection, schedule: Q01DX009 (ip), vehicle: Klucel (hydroxypropylcellulose) (HPC) 99 % of control

C=C1C(=O)C23C(OC(=O)CCCCCCCCCCCCCCC)C1CCC2C12COC3(O)C(O)C1C(C)(C)CCC2O (stereo unspecified)
inactive: dose: 3.75 mg/kg/injection, schedule: Q01DX009 (ip), vehicle: saline with Tween-80 101 % of control | dose: 7.5 mg/kg/injection, schedule: Q01DX009 (ip), vehicle: saline with Tween-80 104 % of control | dose: 15.0 mg/kg/injection, schedule: Q01DX009 (ip), vehicle: saline with Tween-80 103 % of control | dose: 30.0 mg/kg/injection, schedule: Q01DX009 (ip), vehicle: saline with Tween-80 99 % of control

C[N+](C)(C)C1CCC2CCCCC2C1 (stereo unspecified)
inactive: dose: 12.5 mg/kg/injection, schedule: Q04DX003 (ip), vehicle: saline with Tween-80 103 % of control | dose: 25.0 mg/kg/injection, schedule: Q04DX003 (ip), vehicle: saline with Tween-80 100 % of control and 107 % of control and 98 % of control | dose: 50.0 mg/kg/injection, schedule: Q04DX003 (ip), vehicle: saline with Tween-80 100 % of control and 104 % of control and 124 % of control | [8] 98 % of control

Cc1nc2c(cc1[N+](=O)[O-])C(=O)NCCN2
inactive: dose: 25.0 mg/kg/injection, schedule: Q04DX003 (ip), vehicle: Klucel (hydroxypropylcellulose) (HPC) 91 % of control | dose: 50.0 mg/kg/injection, schedule: Q04DX003 (ip), vehicle: Klucel (hydroxypropylcellulose) (HPC) 100 % of control | dose: 100.0 mg/kg/injection, schedule: Q04DX003 (ip), vehicle: Klucel (hydroxypropylcellulose) (HPC) 96 % of control

O=C(c1ccccc1)C1CCCN(CCc2ccccc2)C1 (stereo unspecified)
inactive: [1] 108 % of control | [2] 109 % of control

Nc1cc(-c2ccccc2)cn1-c1nnc(-c2ccc(Br)cc2)s1
inactive: dose: 100.0 mg/kg/injection, schedule: Q01DX001 (ip), vehicle: Klucel (hydroxypropylcellulose) (HPC) 101 % of control | dose: 200.0 mg/kg/injection, schedule: Q01DX001 (ip), vehicle: Klucel (hydroxypropylcellulose) (HPC) 100 % of control | dose: 400.0 mg/kg/injection, schedule: Q01DX001 (ip), vehicle: Klucel (hydroxypropylcellulose) (HPC) 99 % of control

CCOC(=O)/C(=C\c1ccccc1)O/C(=C/c1ccccc1)C(=O)OCC
inactive: dose: 12.5 mg/kg/injection, schedule: Q04DX002 (ip), vehicle: saline with Tween-80 100 % of control | dose: 25.0 mg/kg/injection, schedule: Q04DX002 (ip), vehicle: saline with Tween-80 97 % of control | dose: 50.0 mg/kg/injection, schedule: Q04DX002 (ip), vehicle: saline with Tween-80 99 % of control

O=C(Cc1nc2ccc([N+](=O)[O-])cc2nc1CC(=O)c1ccccc1)c1ccccc1
inactive: [3] 110 % of control | [4] 103 % of control | dose: 240.0 mg/kg/injection, schedule: Q01DX005 (ip), vehicle: saline with Tween-80 100 % of control

CCOC(=O)C1=C(C(=O)c2ccccc2)C(c2ccccc2[N+](=O)[O-])C(C(=O)c2ccccc2)=C(C(=O)OCC)N1
inactive: [3] 101 % of control | [4] 98 % of control

CN(C)CCOC(=O)Nc1ccc(Cc2ccc(NC(=O)OCCN(C)C)cc2)cc1
inactive: dose: 15.0 mg/kg/injection, schedule: Q01DX005 (ip), vehicle: saline with Tween-80 109 % of control | dose: 30.0 mg/kg/injection, schedule: Q01DX005 (ip), vehicle: saline with Tween-80 101 % of control | [3] 101 % of control and 109 % of control

Cc1ccc2oc(-c3ccccc3)c(O)c(=O)c2c1
inactive: [8] 100 % of control | [9] 108 % of control | [10] 95 % of control

CC(=O)CSc1ncnc2nc[nH]c12
inactive: [8] 100 % of control | [9] 113 % of control | [10] 109 % of control

CC1(C(=O)O)CCCC2(C)C3CC(=O)OC3(CC(=O)O)CCC12 (stereo unspecified)
inactive: dose: 7.5 mg/kg/injection, schedule: Q01DX009 (ip), vehicle: saline + alcohol 91 % of control | dose: 15.0 mg/kg/injection, schedule: Q01DX009 (ip), vehicle: saline + alcohol 98 % of control | dose: 30.0 mg/kg/injection, schedule: Q01DX009 (ip), vehicle: saline + alcohol 103 % of control

Reference: PubChem BioAssay AID330 (DTP/NCI, 2004)
